In patent publication US10772840B2 (Charleston Laboratories, Inc., priority 2016, dated 2020):
Structures can show the parent of a compound that is named as a salt.

Assay: Impurity profile (related substances) by HPLC, initial and after one month at 40° C. (stability study)
Assay type: physicochemical
Conditions: HPLC percent area
Experimental: The percentages of related substances were measured using an HPLC.
Stock promethazine HCl selectivity solution was prepared by accurately weighing about 2 mg of EP promethazine for peak identification CRS and transferring into 1 mL of diluent (prepared by mixing 750 mL of mobile phase A and 250 mL of acetonitrile), followed by vortexing to dissolve.
Ten capsules were randomly selected and weighed. The contents of the ten capsules were emptied into a 500 mL volumetric flask. 300 mL of diluent was added and the mixture was sonicated in an ice bath for 40 minutes or until completely disintegrated with intermittent swirling. The temperature was equilibrated to room temperature and more diluent was added to volume.
Promethazine HCl impurity sample solution: stock solution sample was filtered through a 0.45 μm PVDF membrane, syringe filter or a 0.45 μm PTFE w/GMF membrane, syringe filter discarding the first 5 mL and collecting approximately 20 mL into an appropriate glass container. Fill an HPLC vial with the filtrate
The RT of the promethazine in the promethazine HCl selectivity solution is between 44.1 and 53.9.
Mobile Phase B: 0.2% TFA in Acetonitrile, which was prepared by mixing well 2.0 ml of trifluoroacetic acid to 1 L of acetonitrile; and Gradient used was as follows in Table 15.
All known and unknown impurities were calculated via percent area as follow:
[formula] Where: • Ru=Peak area of related substance in the sample solution • Rt=Sum of peak area of promethazine or sumatriptan and all related substances areas corresponding to respective peak in sample solution • RRF=Relative Response Factor for related substances
The formulation was examined for its stability after one month at 40° C.

Impurity percentages, all related substances combined (in a capsule stored at 40° C. for 1 month): 0.2% | Impurity percentages, all related substances combined (in a capsule, initial (before storage)): 0.3%
Structure (SMILES): CC(CN1c2ccccc2Sc2ccccc21)N(C)C (centres unmarked) [Promethazine, Promethazine Hydrochloride]
